# In PubChem BioAssay (NCI):
#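 Exposure lasted 48 hours, with cells grown in 96-well plates and compounds tested at five concentrations. At the GI50, growth is halved. TGI denotes the concentration required for complete inhibition of growth.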
# Assays:
# Assay in all cases: growth of human tumour cells (NCI), 48 h
# [1] = system: 786-0 renal
# [2] = system: A498 renal
# [3] = system: A549 NSCLC
# [4] = system: ACHN renal
# [5] = system: BT-549 breast
# [6] = system: CCRF-CEM leukemia
# [7] = system: COLO 205 colon
# [8] = system: DU-145 prostate
# [9] = system: HCT-116 colon
# [10] = system: HCT-15 colon
# [11] = system: HL-60(TB) leukemia
# [12] = system: HOP-62 NSCLC
# [13] = system: HOP-92 NSCLC
# [14] = system: HS 578T breast
# [15] = system: HT29 colon
# [16] = system: IGROV1 ovarian
# [17] = system: K-562 leukemia
# [18] = system: LOX IMVI melanoma
# [19] = system: M14 melanoma
# [20] = system: MCF7 breast
# [21] = system: MDA-MB-231 breast
# [22] = system: MDA-MB-435
# [23] = system: NCI-H226 lung
# [24] = system: NCI-H23 lung
# [25] = system: NCI-H460 lung
# [26] = system: NCI/ADR-RES ovarian
# [27] = system: OVCAR-3 ovarian
# [28] = system: OVCAR-4 ovarian
# [29] = system: OVCAR-5 ovarian
# [30] = system: OVCAR-8 ovarian
# [31] = system: PC-3 prostate
# [32] = system: RPMI-8226 leukemia
# [33] = system: RXF 393 renal
# [34] = system: SF-268 CNS
# [35] = system: SF-539 CNS
# [36] = system: SK-MEL-2 melanoma
# [37] = system: SK-MEL-28 melanoma
# [38] = system: SK-MEL-5 melanoma
# [39] = system: SK-OV-3 ovarian
# [40] = system: SN12C renal
# [41] = system: SNB-19 CNS
# [42] = system: SNB-75 CNS
# [43] = system: SW-620 colon
# [44] = system: T-47D breast
# [45] = system: TK-10 renal
# [46] = system: U251 CNS
# [47] = system: UACC-257 melanoma
# [48] = system: UACC-62 melanoma
# [49] = system: UO-31 renal
# [50] = system: CAKI-1 renal
# [51] = system: EKVX NSCLC
# [52] = system: HCC-2998 colon
# [53] = system: KM12 colon
# [54] = system: MALME-3M melanoma
# [55] = system: MOLT-4 leukemia
# [56] = system: SF-295 CNS
smiles,measurement,setting,value
COc1ccc(/C=C2\N=C(SC)N(C)C2=O)cc1,TGI,[1],> 100 µM
same,TGI,[2],> 100 µM
same,TGI,[3],> 100 µM
same,TGI,[4],> 100 µM
same,TGI,[5],> 100 µM
same,TGI,[6],> 100 µM
same,TGI,[7],> 100 µM
same,TGI,[8],> 100 µM
same,TGI,[9],> 100 µM
same,TGI,[10],> 100 µM
same,TGI,[11],> 100 µM
same,TGI,[12],> 100 µM
same,TGI,[13],> 100 µM
same,TGI,[14],90.4 µM
same,TGI,[15],> 100 µM
same,TGI,[16],> 100 µM
same,TGI,[17],> 100 µM
same,TGI,[18],> 100 µM
same,TGI,[19],> 100 µM
same,TGI,[20],> 100 µM
same,TGI,[21],> 100 µM
same,TGI,[22],> 100 µM
same,TGI,[23],> 100 µM
same,TGI,[24],> 100 µM
same,TGI,[25],> 100 µM
same,TGI,[26],> 100 µM
same,TGI,[27],> 100 µM
same,TGI,[28],> 100 µM
same,TGI,[29],> 100 µM
same,TGI,[30],> 100 µM
same,TGI,[31],> 100 µM
same,TGI,[32],> 100 µM
same,TGI,[33],> 100 µM
same,TGI,[34],> 100 µM
same,TGI,[35],> 100 µM
same,TGI,[36],> 100 µM
same,TGI,[37],> 100 µM
same,TGI,[38],> 100 µM
same,TGI,[39],> 100 µM
same,TGI,[40],> 100 µM
same,TGI,[41],> 100 µM
same,TGI,[42],> 100 µM
same,TGI,[43],> 100 µM
same,TGI,[44],> 100 µM
same,TGI,[45],> 100 µM
same,TGI,[46],> 100 µM
same,TGI,[47],> 100 µM
same,TGI,[48],> 100 µM
same,TGI,[49],> 100 µM
Cc1ccc(NCCN2CCCCC2)c2c(=O)c3ccccc3sc12,GI50,[1],1.63 µM
same,TGI,[1],3.61 µM
same,GI50,[2],1.91 µM
same,TGI,[2],3.64 µM
same,GI50,[3],1.42 µM
same,TGI,[3],2.97 µM
same,GI50,[4],2.68 µM
same,TGI,[4],7.47 µM
same,GI50,[5],2.43 µM
same,TGI,[5],9.59 µM
same,GI50,[50],0.278 µM
same,TGI,[50],2.43 µM
same,GI50,[6],2.38 µM
same,TGI,[6],6.92 µM
same,GI50,[7],1.45 µM
same,TGI,[7],2.85 µM
same,GI50,[8],3.76 µM
same,TGI,[8],14.4 µM
same,GI50,[51],2.77 µM
same,TGI,[51],13.1 µM
same,GI50,[52],2.16 µM
same,TGI,[52],3.67 µM
same,GI50,[9],1.68 µM
same,TGI,[9],3.17 µM
same,GI50,[10],3.17 µM
same,TGI,[10],10.8 µM
same,GI50,[11],1.66 µM
same,TGI,[11],3.6 µM
same,GI50,[12],1.55 µM
same,TGI,[12],3.07 µM
same,GI50,[13],1.88 µM
same,TGI,[13],7.56 µM
same,GI50,[14],2.03 µM
same,TGI,[14],5.17 µM
same,GI50,[15],1.97 µM
same,TGI,[15],4.72 µM
same,GI50,[16],1.48 µM
same,TGI,[16],4.3 µM
same,GI50,[17],1.64 µM
same,TGI,[17],3.52 µM
same,GI50,[53],3.81 µM
same,TGI,[53],14.4 µM
same,GI50,[18],1.78 µM
same,TGI,[18],3.68 µM
same,GI50,[19],1.61 µM
same,TGI,[19],2.97 µM
same,GI50,[54],1.19 µM
same,TGI,[54],2.55 µM
same,GI50,[20],1.56 µM
same,TGI,[20],3.55 µM
same,GI50,[21],2.12 µM
same,TGI,[21],4.77 µM
same,GI50,[22],1.78 µM
same,TGI,[22],3.73 µM
same,GI50,[55],1.99 µM
same,TGI,[55],4.91 µM
same,GI50,[23],2.24 µM
same,TGI,[23],4.96 µM
same,GI50,[24],2.25 µM
same,TGI,[24],5.77 µM
same,GI50,[25],1.89 µM
same,TGI,[25],3.88 µM
same,GI50,[26],2.45 µM
same,TGI,[26],6.78 µM
same,GI50,[27],4.75 µM
same,TGI,[27],17.6 µM
same,GI50,[28],5.57 µM
same,TGI,[28],18.1 µM
same,GI50,[29],1.97 µM
same,TGI,[29],3.64 µM
same,GI50,[31],2.14 µM
same,TGI,[31],7.49 µM
same,GI50,[32],1.49 µM
same,TGI,[32],3.42 µM
same,GI50,[34],5.33 µM
same,TGI,[34],18.7 µM
same,GI50,[56],1.63 µM
same,TGI,[56],3.73 µM
same,GI50,[35],1.97 µM
same,TGI,[35],5.98 µM
same,GI50,[37],2.43 µM
same,TGI,[37],4.16 µM
same,GI50,[38],1.62 µM
same,TGI,[38],3 µM
same,GI50,[39],2.04 µM
same,TGI,[39],6.03 µM
same,GI50,[40],4.35 µM
same,TGI,[40],17.6 µM
same,GI50,[41],2.8 µM
same,TGI,[41],13.1 µM
same,GI50,[42],2.61 µM
same,TGI,[42],8.09 µM
same,GI50,[43],1.96 µM
same,TGI,[43],4.01 µM
same,GI50,[44],2.02 µM
same,TGI,[44],6 µM
same,GI50,[45],2 µM
same,TGI,[45],5.82 µM
same,GI50,[46],2.61 µM
same,TGI,[46],7.9 µM
same,GI50,[48],1.92 µM
same,TGI,[48],3.77 µM
